Among the data in patent US12116343B2, “Inhibitors of APOL1 and methods of using same” (Vertex Pharmaceuticals Incorporated, priority 2020, dated 2024) are IC50 values, retold here.

For orientation: pIC50 means the negative decadic logarithm of the IC50, by convention in mol/L.

The structures appear in SMILES notation. pIC50: −log10 of the molar value.

The target in this assay is T1, APOL1 G1 Protein (Homo sapiens, UniProt O14791, I384M/S342G).
T1 sequence (O14791 28-398 S342G/I384M): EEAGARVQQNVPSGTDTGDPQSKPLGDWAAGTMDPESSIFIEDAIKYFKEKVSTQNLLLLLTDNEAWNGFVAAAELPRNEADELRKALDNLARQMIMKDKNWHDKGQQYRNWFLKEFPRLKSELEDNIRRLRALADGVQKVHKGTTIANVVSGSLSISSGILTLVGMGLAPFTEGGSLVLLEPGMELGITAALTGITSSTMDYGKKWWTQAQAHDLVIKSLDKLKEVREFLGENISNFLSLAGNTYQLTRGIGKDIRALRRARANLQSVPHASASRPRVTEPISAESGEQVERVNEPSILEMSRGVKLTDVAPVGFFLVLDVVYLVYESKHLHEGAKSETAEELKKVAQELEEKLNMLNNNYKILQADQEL
In words: Trypanosoma brucei brucei lysis assay using APOL1 recombinant protein (AlamarBlue viability). In kind it is cell-based. The conditions noted are these: Trypanosoma brucei brucei lysis, recombinant APOL1, AlamarBlue; read-out: Trypanosoma Assay (IC50). The source says:
Trypanosoma brucei brucei is a blood stream parasite to which human, gorillas and baboon are immune due to the presence of the APOL1 protein in their HDL particles. The protein is uptaken by the parasite via the TbHpHb receptor located in its flagellar pocket and is bonded by the Hpr protein contained in the HDL particles which triggers the receptor endocytosis by the parasite.
Following endocytosis, the formed vesicle containing the HDL particle matures from early to late endosome, and subsequently to lysosome. The concomitant pH change in the lumen of the vesicle triggers the insertion of the APOL1 protein into the membrane of the late endosome/lysosome and hereby triggers lysosomal membrane premeabilisation and as a further downstream event, trypanosome lysis. Trypanosoma brucei brucei is sensitive to lysis by all three APOL1 variants (G0, G1, and G2).
The Trypanosoma brucei brucei lysis assay is a lysis assay of the parasite using recombinant APOL1 protein variant followed by a fluorescent detection method of viability by the addition of AlamarBlue reagent to the assay well, a general metabolic redox indicator (AlamarBlue assay).
Briefly, the AlamarBlue active compound, the resazurin, a blue, water soluble, non-toxic and cell permeable molecule, which can be followed by absorbance, is reduced by various metabolic pathways into resorufin, a red compound which can be followed by either absorbance or fluorescence. The assay allows the calculation of the percent viability (percent of living Trypanosomes remaining in each well) at the end of a lysis relative to the untreated condition by interpolation of fluorescent values (FLU) on a standard curve with a known amount of seeded trypanosome/well.
Trypanosoma brucei brucei (ATCC, Cat. No. PRA-382) • Lister 427 VSG 221 bloodstream form.
Thaw/Expansion Media (ATCC Medium 2834 Modified HMI-9 Medium)
Assay Media (No Phenol Red/No FBS): Make on Day of Use
Hypoxanthine Stock (100×)-9 (10×)
Equipment • El-Clip Tip pipette 12 channel adjustable 2-125 μL, Cat. No. 4672070BT • ThermoFisher MultiDrop 384, Cat. No. 5840300 • Multidrop • Agilent Bravo, Cat. No. G5409A • Bravo • SpectraMax M5
Assay Ready Plates (ARPs) • ARPs comes in two formats: • […] final top concentration with a 2.5 fold dilution down. • […] final top concentration with a 3 fold dilution down. • Both have a 10 point Dose response. • 0.1% DMSO final in the Black Assay Plate. • Compounds are diluted 1000 fold in the Black Assay Plate. • Each plate is designed for 14 compounds in duplicate. • In the final Black Assay Plate:
Trypanosoma brucei brucei Culture
Step 2, Day 4 • Centrifuge at 800×g for 5 minutes at room temperature. • Resuspend in 1 mL media. • Make a 1:25 fold dilution (10 μL/240 μL media). • Count on a hemocytometer (after adding parasites). • Let sit for 1-2 minutes for the parasites to settle. • Count should be approximately 100 viable motile parasites/16 grid or approximately 25×10^6 parasites/flask. • Passage the parasites by adding 1×10^6 parasites/T75 flask in 20 mL media. • Passage the parasites by adding 2.33×10^6 parasites/T175 flask in 46.6 mL media. • For every T75 flask should make enough for approximately 1.5×384 well assay plates. • For every T175 flask should make enough for approximately 3.8×384 well assay plates.
Step 3, Day 6 • Centrifuge at 800×g for 5 minutes. • Resuspend in 3 mL assay media (No phenol red, no FBS) per 75 starting flask. • Resuspend in 7 mL assay media (No phenol red, no FBS) per 175 flask • Make a 1:25 fold dilution. • Count by hemocytometer. • Every T75 flask set up should have approximately 75×10^6 parasites/flask (verify doubling time=8.7 hrs±1 hr). • Every T175 flask set up should have approximately 175×10^6 parasites/flask (verify doubling time=8.7 hrs±1 hr). • Require 46×10^6 parasites per 384 well plate (at 120,000 parasites per well). Protocol B […]
Background: Resazurin is reduced to fluorescent resorufin, in cell work by metabolically active cells.
With `O=C([C@H]1C[C@H](c2c(-c3ccc(F)cc3)[nH]c3c(F)cc(F)cc32)C1)N1CCCC[C@@H]1CCO` [Compound 156], the pIC50 is under 6.00.

Turning to `O=C1CC[C@@H](NC(=O)[C@H]2C[C@H](c3c(-c4ccc(F)cc4)[nH]c4c(F)cc(F)cc43)C2)C1` [Compound 157], the pIC50 was under 6.00.

As for `CN(CC(O)CO)C(=O)[C@H]1C[C@H](c2c(-c3ccc(F)cc3)[nH]c3c(F)cc(F)cc32)C1` (stereo partly drawn) [Compound 158], the pIC50 was 6.00 to 6.60.

Turning to `O=C1CCC(NC(=O)[C@H]2C[C@H](c3c(-c4ccc(F)cc4)[nH]c4c(F)cc(F)cc43)C2)C1` (stereo partly drawn) [Compound 159], the negative-log IC50 (pIC50) was under 6.00.

Consider `C[C@@H](O)[C@@H](CO)NC(=O)[C@H]1C[C@H](c2c(-c3ccc(F)cc3)[nH]c3c(F)cc(F)cc32)C1` [Compound 160], for which the pIC50 is over 6.60.

As for `O=C([C@H]1C[C@H](c2c(-c3ccc(F)cc3)[nH]c3c(F)cc(F)cc32)C1)N1CCN[C@H](CO)C1` [Compound 161], the pIC50 was 6.00 to 6.60.

Regarding `O=C1NCC[C@@H]1NC(=O)[C@H]1C[C@H](c2c(-c3ccc(F)cc3)[nH]c3c(F)cc(F)cc32)C1` [Compound 162], the pIC50 is 6.00 to 6.60.

Take `O=C(N[C@@H](CO)C(F)(F)F)[C@H]1C[C@H](c2c(-c3ccc(F)cc3)[nH]c3c(F)cc(F)cc32)C1` [Compound 163]: the pIC50 was over 6.60.

`O=C(N[C@H](CO)C(F)(F)F)[C@H]1C[C@H](c2c(-c3ccc(F)cc3)[nH]c3c(F)cc(F)cc32)C1` [Compound 164]: the pIC50 is over 6.60.

Turning to `O=C1C[C@H](NC(=O)[C@H]2C[C@H](c3c(-c4ccc(F)cc4)[nH]c4c(F)cc(F)cc43)C2)C(=O)N1` [Compound 165], the pIC50 is over 6.60.

Turning to `O=C1C[C@@H](NC(=O)[C@H]2C[C@H](c3c(-c4ccc(F)cc4)[nH]c4c(F)cc(F)cc43)C2)C(=O)N1` [Compound 166], the pIC50 is over 6.60.

Turning to `CC(O)CNC(=O)[C@H]1C[C@H](c2c(-c3ccc(F)cc3)[nH]c3c(F)cc(F)cc32)C1` (stereo partly drawn) [Compound 167], the pIC50 is 6.00 to 6.60.

`O=C(NCc1cocn1)[C@H]1C[C@H](c2c(-c3ccc(F)cc3)[nH]c3c(F)cc(F)cc32)C1` [Compound 168]: the pIC50 is over 6.60.

For `NC(=O)[C@H]1C[C@H](c2c(-c3ccc(F)cc3)[nH]c3c(F)cc(F)cc32)C1` [Compound 169], the pIC50 is over 6.60.

For `O=C(NCc1cnco1)[C@H]1C[C@H](c2c(-c3ccc(F)cc3)[nH]c3c(F)cc(F)cc32)C1` [Compound 170], the pIC50 is over 6.60.
